How the values were obtained:
[1] = molecular target: T1, ATP-dependent translocase ABCB1 (Homo sapiens, UniProt P08183); assay: TP_TRANSPORTER: increase in Calcein-AM intracellular accumulation (Calcein-AM: ? uM, Sumatriptan: 100 uM) in MDR1-expressing MDCKII cells; type: functional, cell-based; conditions: dog, mdck-ii
[2] = molecular target: T1, ATP-dependent translocase ABCB1; assay: TP_TRANSPORTER: transepithelial transport (basal to apical) in MDR1-expressing MDCKII cells; type: functional, cell-based; conditions: dog, mdck-ii
[3] = molecular target: T2, MDR1 (P-glycoprotein, ABCB1) (Homo sapiens, UniProt P08183); assay: TP_TRANSPORTER: increase in Calcein-AM intracellular accumulation (Calcein-AM: ? uM, Amitriptyline: 100 uM) in MDR1-expressing MDCKII cells; type: functional, cell-based, MDCK-II; conditions: dog, probe Calcein-AM
T2 sequence (P08183 whole entry): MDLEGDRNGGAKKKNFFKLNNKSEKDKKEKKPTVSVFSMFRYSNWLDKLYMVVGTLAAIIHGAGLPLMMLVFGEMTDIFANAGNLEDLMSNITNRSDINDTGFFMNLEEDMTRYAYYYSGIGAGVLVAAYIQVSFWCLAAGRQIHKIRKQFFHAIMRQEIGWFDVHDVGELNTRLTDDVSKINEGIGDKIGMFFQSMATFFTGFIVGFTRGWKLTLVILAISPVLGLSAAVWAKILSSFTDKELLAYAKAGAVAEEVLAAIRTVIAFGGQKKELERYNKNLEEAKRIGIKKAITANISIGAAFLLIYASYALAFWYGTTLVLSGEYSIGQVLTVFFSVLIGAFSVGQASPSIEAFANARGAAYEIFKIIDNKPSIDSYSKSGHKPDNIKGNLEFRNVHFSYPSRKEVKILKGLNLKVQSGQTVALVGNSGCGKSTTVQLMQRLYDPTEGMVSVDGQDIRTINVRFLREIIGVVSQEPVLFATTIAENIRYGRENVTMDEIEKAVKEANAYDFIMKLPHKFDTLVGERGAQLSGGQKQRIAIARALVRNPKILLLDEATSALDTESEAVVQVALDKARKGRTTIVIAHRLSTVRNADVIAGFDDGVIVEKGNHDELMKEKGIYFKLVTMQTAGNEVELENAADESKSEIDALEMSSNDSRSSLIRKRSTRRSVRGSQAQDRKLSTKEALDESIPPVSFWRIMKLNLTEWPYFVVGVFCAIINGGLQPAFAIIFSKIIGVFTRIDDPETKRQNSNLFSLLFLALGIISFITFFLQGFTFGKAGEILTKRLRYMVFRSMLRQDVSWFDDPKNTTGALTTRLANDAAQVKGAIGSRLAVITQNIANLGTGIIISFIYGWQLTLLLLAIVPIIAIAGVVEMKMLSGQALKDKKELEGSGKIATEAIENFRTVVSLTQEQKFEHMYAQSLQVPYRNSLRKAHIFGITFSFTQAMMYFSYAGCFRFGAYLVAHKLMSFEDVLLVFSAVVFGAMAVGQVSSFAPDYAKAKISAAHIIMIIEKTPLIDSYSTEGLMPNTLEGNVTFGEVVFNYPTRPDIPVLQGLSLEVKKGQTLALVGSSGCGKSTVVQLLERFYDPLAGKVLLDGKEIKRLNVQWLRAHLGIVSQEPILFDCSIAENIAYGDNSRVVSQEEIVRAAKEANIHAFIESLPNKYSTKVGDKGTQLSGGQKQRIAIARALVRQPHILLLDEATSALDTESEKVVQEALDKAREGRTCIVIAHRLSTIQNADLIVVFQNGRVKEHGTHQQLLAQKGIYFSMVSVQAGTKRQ

[4] = molecular target: T1, ATP-dependent translocase ABCB1; assay: TP_TRANSPORTER: increase in Calcein-AM intracellular accumulation (Calcein-AM: ? uM, Biperiden: 100 uM) in MDR1-expressing MDCKII cells; type: functional, cell-based; conditions: dog, mdck-ii
[5] = molecular target: T2, MDR1 (P-glycoprotein, ABCB1); assay: TP_TRANSPORTER: increase in Calcein-AM intracellular accumulation (Calcein-AM: ? uM, Buspirone: 100 uM) in MDR1-expressing MDCKII cells; type: functional, cell-based, MDCK-II; conditions: dog, probe Calcein-AM
[6] = molecular target: T1, ATP-dependent translocase ABCB1; assay: TP_TRANSPORTER: increase in Calcein-AM intracellular accumulation (Calcein-AM: ? uM, Carbamazepine: 100 uM) in MDR1-expressing MDCKII cells; type: functional, cell-based; conditions: dog, mdck-ii
[7] = molecular target: T2, MDR1 (P-glycoprotein, ABCB1); assay: TP_TRANSPORTER: increase in Calcein-AM intracellular accumulation (Calcein-AM: ? uM, Chlorprothixene: 100 uM) in MDR1-expressing MDCKII cells; type: functional, cell-based, MDCK-II; conditions: dog, probe Calcein-AM
[8] = molecular target: T2, MDR1 (P-glycoprotein, ABCB1); assay: TP_TRANSPORTER: increase in Calcein-AM intracellular accumulation (Calcein-AM: ? uM, Clomipramine: 100 uM) in MDR1-expressing MDCKII cells; type: functional, cell-based, MDCK-II; conditions: dog, probe Calcein-AM
[9] = molecular target: T2, MDR1 (P-glycoprotein, ABCB1); assay: TP_TRANSPORTER: increase in Calcein-AM intracellular accumulation (Calcein-AM: ? uM, Desipramine: 100 uM) in MDR1-expressing MDCKII cells; type: functional, cell-based, MDCK-II; conditions: dog, probe Calcein-AM
[10] = molecular target: T2, MDR1 (P-glycoprotein, ABCB1); assay: TP_TRANSPORTER: increase in Calcein-AM intracellular accumulation (Calcein-AM: ? uM, Doxepin: 100 uM) in MDR1-expressing MDCKII cells; type: functional, cell-based, MDCK-II; conditions: dog, probe Calcein-AM
[11] = molecular target: T1, ATP-dependent translocase ABCB1; assay: TP_TRANSPORTER: increase in Calcein-AM intracellular accumulation (Calcein-AM: ? uM, Flumazenil: 100 uM) in MDR1-expressing MDCKII cells; type: functional, cell-based; conditions: dog, mdck-ii
[12] = molecular target: T2, MDR1 (P-glycoprotein, ABCB1); assay: TP_TRANSPORTER: increase in Calcein-AM intracellular accumulation (Calcein-AM: ? uM, […]: 100 uM) in MDR1-expressing MDCKII cells; type: functional, cell-based, MDCK-II; conditions: dog, probe Calcein-AM
[13] = molecular target: T2, MDR1 (P-glycoprotein, ABCB1); assay: TP_TRANSPORTER: increase in Calcein-AM intracellular accumulation (Calcein-AM: ? uM, Fluvoxamine: 100 uM) in MDR1-expressing MDCKII cells; type: functional, cell-based, MDCK-II; conditions: dog, probe Calcein-AM
[14] = molecular target: T2, MDR1 (P-glycoprotein, ABCB1); assay: TP_TRANSPORTER: increase in Calcein-AM intracellular accumulation (Calcein-AM: ? uM, Haloperidol: 100 uM) in MDR1-expressing MDCKII cells; type: functional, cell-based, MDCK-II; conditions: dog, probe Calcein-AM
[15] = molecular target: T1, ATP-dependent translocase ABCB1; assay: TP_TRANSPORTER: increase in Calcein-AM intracellular accumulation (Calcein-AM: ? uM, Imipramine: 100 uM) in MDR1-expressing MDCKII cells; type: functional, cell-based; conditions: dog, mdck-ii
[16] = molecular target: T1, ATP-dependent translocase ABCB1; assay: TP_TRANSPORTER: increase in Calcein-AM intracellular accumulation (Calcein-AM: ? uM, Ketamine: 100 uM) in MDR1-expressing MDCKII cells; type: functional, cell-based; conditions: dog, mdck-ii
[17] = molecular target: T2, MDR1 (P-glycoprotein, ABCB1); assay: TP_TRANSPORTER: increase in Calcein-AM intracellular accumulation (Calcein-AM: ? uM, Maprotiline: 100 uM) in MDR1-expressing MDCKII cells; conditions: dog, probe Calcein-AM
[18] = molecular target: T1, ATP-dependent translocase ABCB1; assay: TP_TRANSPORTER: increase in Calcein-AM intracellular accumulation (Calcein-AM: ? uM, Meprobamate: 100 uM) in MDR1-expressing MDCKII cells; type: functional, cell-based; conditions: dog, mdck-ii
[19] = molecular target: T2, MDR1 (P-glycoprotein, ABCB1); assay: TP_TRANSPORTER: increase in Calcein-AM intracellular accumulation (Calcein-AM: ? uM, Metergoline: 100 uM) in MDR1-expressing MDCKII cells; type: functional, cell-based, MDCK-II; conditions: dog, probe Calcein-AM
[20] = molecular target: T1, ATP-dependent translocase ABCB1; assay: TP_TRANSPORTER: increase in Calcein-AM intracellular accumulation (Calcein-AM: ? uM, Naltrexone: 100 uM) in MDR1-expressing MDCKII cells; type: functional, cell-based; conditions: dog, mdck-ii
[21] = molecular target: T1, ATP-dependent translocase ABCB1; assay: TP_TRANSPORTER: increase in Calcein-AM intracellular accumulation (Calcein-AM: ? uM, Nitrazepam: 100 uM) in MDR1-expressing MDCKII cells; type: functional, cell-based; conditions: dog, mdck-ii
[22] = molecular target: T1, ATP-dependent translocase ABCB1; assay: TP_TRANSPORTER: increase in Calcein-AM intracellular accumulation (Calcein-AM: ? uM, Nordazepam: 100 uM) in MDR1-expressing MDCKII cells; type: functional, cell-based; conditions: dog, mdck-ii
[23] = molecular target: T1, ATP-dependent translocase ABCB1; assay: TP_TRANSPORTER: increase in Calcein-AM intracellular accumulation (Calcein-AM: ? uM, Selegiline: 100 uM) in MDR1-expressing MDCKII cells; type: functional, cell-based; conditions: dog, mdck-ii
[24] = molecular target: T1, ATP-dependent translocase ABCB1; assay: TP_TRANSPORTER: increase in Calcein-AM intracellular accumulation (Calcein-AM: ? uM, Zimeldine: 100 uM) in MDR1-expressing MDCKII cells; type: functional, cell-based; conditions: dog, mdck-ii

T1 sequence (P08183 whole entry): as above

CNS(=O)(=O)Cc1ccc2[nH]cc(CCN(C)C)c2c1
Activity [1]: is not an inhibitor [-]
Activity [2]: is not a substrate [-]

CN(C)CCC=C1c2ccccc2CCc2ccccc21 [AMITRIPTYLINE]
inhibition at 100 µM [3]: 25.5%
Activity [2]: is not a substrate [-]

OC(CCN1CCCCC1)(c1ccccc1)C1CC2C=CC1C2 (stereo not given) [BIPERIDEN]
Activity [4]: is not an inhibitor [-]
Activity [2]: is not a substrate [-]

CC(C)C[C@H]1C(=O)N2CCC[C@H]2[C@]2(O)O[C@](NC(=O)[C@@H]3C=C4c5cccc6[nH]c(Br)c(c56)C[C@H]4N(C)C3)(C(C)C)C(=O)N12 [BROMOCRIPTINE]
Activity [2]: is not a substrate [-]

O=C1CC2(CCCC2)CC(=O)N1CCCCN1CCN(c2ncccn2)CC1 [BUSPIRONE]
inhibition at 100 µM [5]: 24.1%
Activity [2]: is not a substrate [-]

NC(=O)N1c2ccccc2C=Cc2ccccc21 [CARBAMAZEPINE]
Activity [6]: is not an inhibitor [-]
Activity [2]: is not a substrate [-]

CN(C)CC/C=C1/c2ccccc2Sc2ccc(Cl)cc21 [CHLORPROTHIXENE]
inhibition at 100 µM [7]: 57.5%
Activity [2]: is not a substrate [-]

CN(C)CCCN1c2ccccc2CCc2ccc(Cl)cc21 [CLOMIPRAMINE]
inhibition at 100 µM [8]: 48.2%
Activity [2]: is not a substrate [-]

CNCCCN1c2ccccc2CCc2ccccc21 [DESIPRAMINE]
inhibition at 100 µM [9]: 12.8%
Activity [2]: is not a substrate [-]

CN(C)CCC=C1c2ccccc2COc2ccccc21 [DOXEPIN]
inhibition at 100 µM [10]: 15.3%
Activity [2]: is not a substrate [-]

CCOC(=O)c1ncn2c1CN(C)C(=O)c1cc(F)ccc1-2 [FLUMAZENIL]
Activity [11]: is not an inhibitor [-]
Activity [2]: is not a substrate [-]

CCN(CC)CCN1C(=O)CN=C(c2ccccc2F)c2cc(Cl)ccc21 [FLURAZEPAM]
inhibition at 100 µM [12]: 22.6%
Activity [2]: is not a substrate [-]

COCCCC/C(=N\OCCN)c1ccc(C(F)(F)F)cc1 [FLUVOXAMINE]
inhibition at 100 µM [13]: 20.8%
Activity [2]: is not a substrate [-]

O=C(CCCN1CCC(O)(c2ccc(Cl)cc2)CC1)c1ccc(F)cc1 [HALOPERIDOL]
inhibition at 100 µM [14]: 37.2%
Activity [2]: is not a substrate [-]

CN(C)CCCN1c2ccccc2CCc2ccccc21 [IMIPRAMINE]
Activity [15]: is not an inhibitor [-]
Activity [2]: is not a substrate [-]

CNC1(c2ccccc2Cl)CCCCC1=O (stereo not given) [KETAMINE]
Activity [16]: is not an inhibitor [-]
Activity [2]: is not a substrate [-]

CNCCCC12CCC(c3ccccc31)c1ccccc12 [MAPROTILINE]
inhibition at 100 µM [17]: 36.7%
Activity [2]: is not a substrate [-]

CCCC(C)(COC(N)=O)COC(N)=O [MEPROBAMATE]
Activity [18]: is not an inhibitor [-]
Activity [2]: is not a substrate [-]

CN1C[C@H](CNC(=O)OCc2ccccc2)C[C@@H]2c3cccc4c3c(cn4C)C[C@H]21 [METERGOLINE]
inhibition at 100 µM [19]: 84.4%
Activity [2]: is not a substrate [-]

Cc1ncc2n1-c1ccc(Cl)cc1C(c1ccccc1F)=NC2 [MIDAZOLAM]
Activity [2]: is not a substrate [-]

C=CCN1CC[C@]23c4c5ccc(O)c4O[C@H]2C(=O)CC[C@@]3(O)[C@H]1C5 [NALOXONE]
Activity [2]: is not a substrate [-]

O=C1CC[C@@]2(O)[C@H]3Cc4ccc(O)c5c4[C@@]2(CCN3CC2CC2)[C@H]1O5 [NALTREXONE]
Activity [20]: is not an inhibitor [-]
Activity [2]: is not a substrate [-]

O=C1CN=C(c2ccccc2)c2cc([N+](=O)[O-])ccc2N1 [NITRAZEPAM]
Activity [21]: is not an inhibitor [-]
Activity [2]: is not a substrate [-]

O=C1CN=C(c2ccccc2)c2cc(Cl)ccc2N1 [NORDAZEPAM]
Activity [22]: is not an inhibitor [-]
Activity [2]: is not a substrate [-]

C#CCN(C)[C@H](C)Cc1ccccc1 [SELEGILINE]
Activity [23]: is not an inhibitor [-]
Activity [2]: is not a substrate [-]

Nc1c2c(nc3ccccc13)CCCC2 [TACRINE]
Activity [2]: is not a substrate [-]

CN(C)C/C=C(/c1ccc(Br)cc1)c1cccnc1 [ZIMELDINE]
Activity [24]: is not an inhibitor [-]
Activity [2]: is not a substrate [-]
